Measurements taken from publication PMC11269731, “Pannexin-1 channel inhibition alleviates opioid withdrawal in rodents by modulating locus coeruleus to spinal cord circuitry” (Nature Communications, 2024).

Target: T1, Pannexin-1 (rPanx1) (Rattus norvegicus, UniProt P60570)
T1 construct: gene Panx1; Rattus norvegicus Pannexin-1 cDNA in pRK5 (pRK5-rPanx1)
Assay: whole-cell patch clamp of HEK-293T cells transfected with rat Panx1
Type: cell-based

T1 sequence (P60570 whole entry): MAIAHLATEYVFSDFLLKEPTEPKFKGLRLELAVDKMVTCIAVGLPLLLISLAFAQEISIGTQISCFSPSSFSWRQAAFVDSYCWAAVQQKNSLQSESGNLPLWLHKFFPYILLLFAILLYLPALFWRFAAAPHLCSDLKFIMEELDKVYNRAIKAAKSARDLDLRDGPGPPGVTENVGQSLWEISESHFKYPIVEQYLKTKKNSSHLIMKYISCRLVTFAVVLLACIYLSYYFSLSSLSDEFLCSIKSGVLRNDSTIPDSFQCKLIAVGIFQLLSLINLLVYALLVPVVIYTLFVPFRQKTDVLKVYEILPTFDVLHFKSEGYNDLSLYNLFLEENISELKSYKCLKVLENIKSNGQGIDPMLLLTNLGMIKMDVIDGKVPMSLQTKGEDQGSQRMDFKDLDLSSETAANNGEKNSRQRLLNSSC

SMILES | IC50 [µM]
CCCN(CCC)S(=O)(=O)c1ccc(C(O)(C(F)(F)F)C(F)(F)F)cc1 [EG-2184, 4-(1,1,1,3,3,3-hexafluoro-2-hydroxypropan-2-yl)-N,N-dipropylbenzenesulfonamide] | 0.054
CCCN(CCC)S(=O)(=O)c1ccc(C(=O)O)cc1 [probenecid] | 74.6
